Assay results reported in patent US6582947B1, “Medical use of gene and vector encoding a multisubstrate deoxyribonucleoside kinase” (BIO VICI, priority 1998, dated 2003).
Like-named read-outs stand apart in the source and are kept apart here.

Key:
HSV-1 TK [1] = target: T1, HSV-1 TK (Human herpesvirus 1, UniProt P0DTH5); experiment: biochemical
Protocol: (§1) The competion experiments were carried out in the following way: The standard reaction mixture contained 2.5 mM MgCl2, 10 mM dithio threitol, 1 mg/ml bovine serum albumin, 2.5 mM ATP, 10 mM NaF, 2 μM methyl-^3H-thymidine, an appropriate amount of a nucleoside analog and the multisubstrate deoxyribonucleoside kinase in an amount resulting in a linear conversion of the substrate, in a total reaction mixture of 50 μl of 50 mM Tris-HCl, pH 8.0. The reaction mixture was incubated at 37° C. for 30 min, and the reaction was terminated by spotting on to DE-81 discs (Whatman). The discs were instantly immersed and washed in ethanol (70%). The filters were dried and assayed for radioactivity in a tuluene-based scintillant.

recombinant Dm-dNK = target: T2, recombinant Dm-dNK (Drosophila melanogaster, UniProt Q9XZT6); experiment: Phosphoryl transfer assay, substrate specificity of recombinant Dm-dNK; details: naturally occurring nucleosides
T2 sequence (Q9XZT6 1-250): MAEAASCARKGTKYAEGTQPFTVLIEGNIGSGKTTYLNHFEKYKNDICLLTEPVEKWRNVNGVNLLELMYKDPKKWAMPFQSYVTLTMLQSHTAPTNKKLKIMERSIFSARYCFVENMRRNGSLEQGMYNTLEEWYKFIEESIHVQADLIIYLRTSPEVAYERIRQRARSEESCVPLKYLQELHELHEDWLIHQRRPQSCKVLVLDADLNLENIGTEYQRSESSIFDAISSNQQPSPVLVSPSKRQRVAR
Protocol: A phosphor transferase assay was used to determine the substrate specificity of the putative deoxyribonucleoside kinase. […] The samples were incubated 30 min at 37° C. 2 μl of the reaction mixtures were spotted on poly(ethyleneimine) cellulose F thin layer chromatography sheets (Merck Inc.) and the nucleotide separated in a buffer containing NH4OH:isobutyric acid:dH2O (1:66:33). The sheets were autoradiographed using phosphoimaging plates (BAS 1000, Fujix).

deoxyguanosine kinase = target: T3, deoxyguanosine kinase (Homo sapiens, UniProt Q16854); details: cited from earlier work
T3 sequence (Q16854 40-277): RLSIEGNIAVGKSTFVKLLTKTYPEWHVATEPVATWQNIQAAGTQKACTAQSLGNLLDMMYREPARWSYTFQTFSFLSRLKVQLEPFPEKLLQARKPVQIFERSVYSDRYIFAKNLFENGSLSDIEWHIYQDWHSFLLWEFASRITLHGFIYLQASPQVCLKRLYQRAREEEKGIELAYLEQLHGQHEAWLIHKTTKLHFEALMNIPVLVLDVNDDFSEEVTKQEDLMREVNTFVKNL

HSV-TK = details: cited from earlier work
HSV-1 TK [2] = target: T1, HSV-1 TK
Protocol: as §1

T1 sequence (P0DTH5 whole entry): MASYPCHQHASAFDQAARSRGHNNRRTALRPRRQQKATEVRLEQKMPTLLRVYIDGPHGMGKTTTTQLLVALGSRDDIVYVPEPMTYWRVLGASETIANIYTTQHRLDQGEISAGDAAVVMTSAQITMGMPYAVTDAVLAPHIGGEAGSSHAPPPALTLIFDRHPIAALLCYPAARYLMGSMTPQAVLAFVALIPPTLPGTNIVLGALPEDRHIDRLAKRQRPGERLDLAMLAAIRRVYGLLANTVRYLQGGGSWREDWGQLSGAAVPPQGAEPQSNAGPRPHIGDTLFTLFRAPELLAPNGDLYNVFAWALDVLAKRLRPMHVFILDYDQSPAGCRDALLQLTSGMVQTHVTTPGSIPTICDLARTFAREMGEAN

## O=c1[nH]c(=O)n([C@@H]2O[C@H](CO)[C@@H](O)[C@@H]2F)cc1I [FIAU, 1-(2-deoxy-2-fluoro-β-D-arabinofuranosyl)-5-iodouracil]
HSV-1 TK [1]
  IC50: 2 µM

## Nc1nc2c(ncn2[C@H]2C[C@H](O)[C@@H](CO)O2)c(=O)[nH]1 [deoxyguanosine]
Recombinant Dm-dNK
  phosphorylation by the enzyme (in words): efficiently phosphorylated

## Nc1ccn([C@H]2C[C@H](O)[C@@H](CO)O2)c(=O)n1 [deoxycytidine]
Recombinant Dm-dNK
  phosphorylation by the enzyme (in words): efficiently phosphorylated

## O=c1[nH]c(=O)n([C@H]2C[C@H](O)[C@@H](CO)O2)cc1/C=C/Br [BVDU, (E)-5-(2-bromovinyl)-2′-deoxyuridine]
HSV-1 TK [1]
  IC50: 3 µM
Deoxyguanosine kinase
  phosphorylation by deoxyguanosine kinase (in words): does not phosphorylate

## Nc1ccn([C@@H]2O[C@H](CO)[C@@H](O)C2(F)F)c(=O)n1 [dFdC, 2′,2′-difluorodeoxycytidine]
HSV-1 TK [1]
  IC50: > 1000 µM
Deoxyguanosine kinase
  phosphorylation by deoxyguanosine kinase (in words): does not phosphorylate
HSV-TK
  phosphorylation by HSV-TK (in words): cannot phosphorylate

## Nc1ncnc2c1ncn2[C@H]1C[C@H](O)[C@@H](CO)O1 [deoxyadenosine]
Recombinant Dm-dNK
  phosphorylation by the enzyme (in words): efficiently phosphorylated

## Nc1nc(Cl)nc2c1ncn2[C@H]1C[C@H](O)[C@@H](CO)O1 [CdA, 2-chloro-2′-deoxyadenosine]
HSV-1 TK [1]
  IC50: > 1000 µM
HSV-TK
  phosphorylation by HSV-TK (in words): cannot phosphorylate

## O=c1[nH]c(=O)n([C@@H]2O[C@H](CO)[C@@H](O)[C@@H]2O)cc1/C=C/Br [BVaraU, (E)-5-(2-bromovinyl)-1-β-D-arabinofuranosyl-uracil]
HSV-1 TK [1]
  IC50: 4 µM
Deoxyguanosine kinase
  phosphorylation by deoxyguanosine kinase (in words): does not phosphorylate

## O=c1[nH]c(=O)n([C@H]2C[C@H](O)[C@@H](CO)O2)cc1F [FdU, 5-fluorodeoxyuridine]
HSV-1 TK [1]
  IC50: 58 µM

## Nc1ccn(C2CSC(CO)O2)c(=O)n1 (stereo not shown) [3TC]
Deoxyguanosine kinase
  phosphorylation by deoxyguanosine kinase (in words): does not phosphorylate
HSV-TK
  phosphorylation by HSV-TK (in words): cannot phosphorylate
HSV-1 TK [2]
  IC50: > 1000 µM

## Nc1ccn([C@@H]2O[C@H](CO)[C@@H](O)[C@@H]2O)c(=O)n1 [AraC, 1-β-D-arabinofuranosylcytosine]
HSV-1 TK [1]
  IC50: > 1000 µM
HSV-TK
  phosphorylation by HSV-TK (in words): cannot phosphorylate

## Nc1ccn([C@H]2CC[C@@H](CO)O2)c(=O)n1 [ddC, 2′,3′-dideoxycytidine]
HSV-1 TK [1]
  IC50: > 1000 µM
Deoxyguanosine kinase
  phosphorylation by deoxyguanosine kinase (in words): does not phosphorylate
HSV-TK
  phosphorylation by HSV-TK (in words): cannot phosphorylate
